From patent US20190289874A1, “STAIN PREVENTION FORMULATIONS” (WM. WRIGLEY JR. COMPANY, priority 2016, published 2019)

Test: In vitro bovine teeth test (stain prevention solutions)
Conditions: for concentration showing a significant visible whitening effect: % by weight of solution, bovine teeth test; for stain-prevention effect: bovine teeth tests, dose response of solutions of Table 1 (FIG. 1), change in whitening index
Experimental: HAD assay and the bovine teeth test were employed by methods generally known in the art for screening stain prevention actives. HAD assays generally included pre-coating a HAD disc with saliva for 1-2 hours and subsequently exposing the disc to a staining broth containing tea, coffee, gastric mucin, trypticase soy broth and saliva for four days. Each day, the disc was moved from staining broth to a solution with a stain prevention formulation three times. The process was repeated for four days. The disc was dried and the color was measured. […] The color of the bovine teeth was measured before and after staining.
To evaluate stain prevention effect, the whitening index of the teeth before and after staining and treatment was calculated. The white index, W, is defined as:
W*=√{square root over ((L*−1.00)^2+(a*)^2+(b*)^2)}
A pure white substance will have W value of […]. The higher the value of ΔW, the whiter the sample would be.
In total, 4-6 HA discs or bovine teeth were tested for each compound or combination. The values were averaged.

With `CCCCCCCCCCCC(=O)N[C@@H](CCCN=C(N)N)C(=O)OCC` [LAE, lauroyl arginine ethyl ether] the “concentration showing a significant visible whitening effect” value was at least 0.05% and the stain-prevention effect was “very effective”.

With `O=P([O-])([O-])OP(=O)([O-])[O-].[Na+].[Na+].[Na+].[Na+]` [SPP, sodium pyrophosphate] the stain-prevention effect was “very effective”.

In the case of `O=P(O)(O)OP(=O)(O)OP(=O)(O)O` [STP, sodium tripolyphosphate], the “concentration showing a significant visible whitening effect” value is reported as at least 0.1%, the stain-prevention effect is reported as “very effective” and the “relative effectiveness for stain prevention” value (comparison between compounds or combinations) is reported as “more effective”.

For `NC(N)=O` [Urea, urea], the stain-prevention effect was “very effective”.

For `OO` [hydrogen peroxide, reference compound], the “concentration showing a significant visible whitening effect” value was at least 0.25%.
